The subject of this test is smooth muscle cells obtained from the aortas of pigs. Nature of the test: inhibition of the proliferation of smooth muscle cells (3H-thymidine incorporation). The settings on record: Sus scrofa; porcine aortic smooth muscle cells; half-maximal inhibition of the thymidine incorporation produced by 10% FCS; 3H-thymidine added after 16-20 h, further 4 h. The format is cell-based, pig. As for the experimental part: Investigation of the inhibition of the proliferation of smooth muscle cells by the compounds according to the invention
To determine the antiproliferative action of the compounds, smooth muscle cells are used which are obtained from the aortas of pigs by the media explant technique [R. Ross, J. Cell. Biol. 50, 172, 1971]. The cells are inoculated into suitable culture dishes, as a rule 96-hole plates, and cultured at 37° C. in 5% CO2 for 2-3 days in medium 199 containing 7.5% FCS and 7.5% NCS, 2 mM L-glutamine and 15 mM HEPES, pH 7.4. The cells are then synchronized by serum withdrawal for 2-3 days and then stimulated to growth using serum or other factors. Test compounds are added simultaneously. After 16-20 hours, ^3 H-thymidine is added and after a further 4 hours the incorporation of this substance into the TCA-precipitable DNA of the cells is determined. To determine the IC50 values, the active compound concentration is calculated which, on sequential dilution of the active compound, causes half-maximal inhibition of the thymidine incorporation produced by 10% FCS.
A general note: Uptake of a labelled nucleoside into DNA is a usual measure of proliferation.

Molecules are shown by their SMILES. pIC50: −log10 of the molar value.

The term pIC50 denotes the IC50 on a negative log10 scale, so that one unit is a factor of ten. A high value points to a low IC50.

In turn, `NC(=O)C(NC(=O)C1CCCCC1c1ccc(Cn2c(C3CC3)nc3ccccc32)cc1)c1ccccc1` (stereo not shown) [Example 16] showed a pIC50 of 9.55.
